The NIST ThermoML archive (doi:10.1016/j.jct.2015.04.005)

Experiment: xn = mol fraction of the nth substance listed
Settings: 102.24 kPa, Liquid; for speed of sound: Frequency=5 MHz, Single path-length method; for mass density: Vibrating tube method

CCC(=O)[O-].C[NH2+]CCO [2-hydroxy-N-methylethanaminium propionate] + O
Settings | mass density [kg/m3] | speed of sound [m/s]
298.15 K, x1 = 0.02 | 1016.8 | 1628.3
298.15 K, x1 = 0.0501 | 1039.1 | 1746.5
298.15 K, x1 = 0.1001 | 1056.2 | 1820.9
298.15 K, x1 = 0.101 | 1055.8 | 1818.1
298.15 K, x1 = 0.2006 | 1072.5 | 1827.2
298.15 K, x1 = 0.301 | 1072.6 | 1790.1
298.15 K, x1 = 0.3978 | 1074 | 1757
298.15 K, x1 = 0.4976 | 1072.3 | 1726.2
298.15 K, x1 = 0.5972 | 1071.9 | 1721
298.15 K, x1 = 0.8006 | 1068.7 | 1684.5
298.15 K, x1 = 1 | 1065.8 | 1638.4
303.15 K, x1 = 0.02 | 1013.4 | 1630.6
303.15 K, x1 = 0.0501 | 1036.3 | 1741.6
303.15 K, x1 = 0.1001 | 1053.4 | 1810.8
303.15 K, x1 = 0.101 | 1052.8 | 1807
303.15 K, x1 = 0.2006 | 1069.5 | 1812.4
303.15 K, x1 = 0.301 | 1069.5 | 1775.9
303.15 K, x1 = 0.3978 | 1070.9 | 1742.3
303.15 K, x1 = 0.4976 | 1069.2 | 1711
303.15 K, x1 = 0.5972 | 1068.7 | 1705.5
303.15 K, x1 = 0.8006 | 1065.4 | 1668.3
303.15 K, x1 = 1 | 1062.6 | 1624.6
308.15 K, x1 = 0.02 | 1010 | 1632.8
308.15 K, x1 = 0.0501 | 1033.5 | 1736.7
308.15 K, x1 = 0.1001 | 1050.7 | 1800.7
308.15 K, x1 = 0.101 | 1049.9 | 1795.9
308.15 K, x1 = 0.2006 | 1066.5 | 1797.6
308.15 K, x1 = 0.301 | 1066.4 | 1761.6
308.15 K, x1 = 0.3978 | 1067.9 | 1727.6
308.15 K, x1 = 0.4976 | 1066.1 | 1695.7
308.15 K, x1 = 0.5972 | 1065.6 | 1689.9
308.15 K, x1 = 0.8006 | 1062.2 | 1652
308.15 K, x1 = 1 | 1059.4 | 1607
313.15 K, x1 = 0.02 | 1006.6 | 1635.1
313.15 K, x1 = 0.0501 | 1030.6 | 1731.8
313.15 K, x1 = 0.1001 | 1047.9 | 1790.6
313.15 K, x1 = 0.101 | 1046.9 | 1784.7
313.15 K, x1 = 0.2006 | 1063.5 | 1782.8
313.15 K, x1 = 0.301 | 1063.3 | 1747.4
313.15 K, x1 = 0.3978 | 1064.8 | 1712.8
313.15 K, x1 = 0.4976 | 1063 | 1680.5
313.15 K, x1 = 0.5972 | 1062.5 | 1674.4
313.15 K, x1 = 0.8006 | 1059 | 1635.7
313.15 K, x1 = 1 | 1056.2 | 1588.5
318.15 K, x1 = 0.02 | 1003.2 | 1637.4
318.15 K, x1 = 0.0501 | 1027.8 | 1726.9
318.15 K, x1 = 0.1001 | 1045.2 | 1780.5
318.15 K, x1 = 0.101 | 1043.9 | 1773.6
318.15 K, x1 = 0.2006 | 1060.5 | 1768
318.15 K, x1 = 0.301 | 1060.2 | 1733.1
318.15 K, x1 = 0.3978 | 1061.8 | 1698.1
318.15 K, x1 = 0.4976 | 1059.8 | 1665.2
318.15 K, x1 = 0.5972 | 1059.4 | 1658.8
318.15 K, x1 = 0.8006 | 1055.8 | 1619.5
318.15 K, x1 = 1 | 1053 | 1573.2
323.15 K, x1 = 0.02 | 999.8 | 1639.6
323.15 K, x1 = 0.0501 | 1025 | 1722
323.15 K, x1 = 0.1001 | 1042.4 | 1770.4
323.15 K, x1 = 0.101 | 1040.9 | 1762.5
323.15 K, x1 = 0.2006 | 1057.5 | 1753.2
323.15 K, x1 = 0.301 | 1057.1 | 1718.9
323.15 K, x1 = 0.3978 | 1058.7 | 1683.3
323.15 K, x1 = 0.4976 | 1056.7 | 1650
323.15 K, x1 = 0.5972 | 1056.2 | 1643.3
323.15 K, x1 = 0.8006 | 1052.6 | 1603.2
323.15 K, x1 = 1 | 1049.8 | 1558.3
328.15 K, x1 = 0.02 | 996.4 | 1641.9
328.15 K, x1 = 0.0501 | 1022.2 | 1717.1
328.15 K, x1 = 0.1001 | 1039.7 | 1760.3
328.15 K, x1 = 0.101 | 1037.9 | 1751.4
328.15 K, x1 = 0.2006 | 1054.5 | 1738.3
328.15 K, x1 = 0.301 | 1054 | 1704.6
328.15 K, x1 = 0.3978 | 1055.6 | 1668.6
328.15 K, x1 = 0.4976 | 1053.6 | 1634.8
328.15 K, x1 = 0.5972 | 1053.1 | 1627.8
328.15 K, x1 = 0.8006 | 1049.3 | 1587
328.15 K, x1 = 1 | 1046.5 | 1543.7
333.15 K, x1 = 0.02 | 993 | 1644.1
333.15 K, x1 = 0.0501 | 1019.4 | 1712.2
333.15 K, x1 = 0.1001 | 1036.9 | 1750.3
333.15 K, x1 = 0.101 | 1035 | 1740.3
333.15 K, x1 = 0.2006 | 1051.5 | 1723.5
333.15 K, x1 = 0.301 | 1051 | 1690.4
333.15 K, x1 = 0.3978 | 1052.6 | 1653.9
333.15 K, x1 = 0.4976 | 1050.5 | 1619.5
333.15 K, x1 = 0.5972 | 1050 | 1612.2
333.15 K, x1 = 0.8006 | 1046.1 | 1570.7
333.15 K, x1 = 1 | 1043.2 | 1527
